Series [1] relates to AHR. Kind of series: AHR activation in mouse intestine in vivo (Cyp1a1 expression by qRT-PCR). Particulars: for expression of the AHR response gene Cyp1a1 in the small intestine: maternal diet with I3C throughout pregnancy, 25 mg/kg body weight/day. As for the experimental part:
Hits were validated for activation of AHR signaling by oral gavage into neonatal C57/B16 mice (p11), and measuring the expression of the AHR activation reporter Cyp1a1 by qRT-PCR in the intestinal mucosa 24 hours later. The lead compound from these studies is herein labelled “A18”. Additionally, the mice were subjected to hypoxia (5% 02-95% N2) for 10 min in a hypoxia chamber (Billups-Rothenberg) twice daily for 4 days. […] To test the protective effect of breast milk on AHR signaling a NEC, human breast milk (Innovative Research) was supplemented to the formula at the final concentration of 5%. Endotoxemia was induced in neonatal mouse pups (p11) by administering 5 mg/kg lipopolysaccharides (LPS) via intraperitoneal injection, and ileal samples were harvested 6 hours after LPS treatments. […] I3C and A18 were administered to the pregnant mother daily until the offspring were studied further for experimental NEC or endotoxemia as above. […] The mRNA quantification was performed on the Bio-Rad CFX96 Real-Time System (Bio-Rad) using iTaqTM universal SYBR® Green supermix (Bio-Rad) and the primers listed in Table 1. The relative mRNA expression levels were normalized against the expression of the housekeeping gene ribosomal protein lateral stalk subunit P0 (Rplp0). For microRNA isolation, freshly harvested, snap-frozen ileal tissue was subjected to total RNA isolation using the RNeasy plus universal mini kit (Qiagen) and miRNA was quantified using miScript PCR starter kit (Qiagen) following the manufacturer's protocols. The relative miRNA expression levels were normalized against the expression of housekeeping miRNA miR-191.

Series [2] relates to TLR4. Nature of the series: TLR4 signaling and Tlr4 expression in newborn mouse ileum in vivo (endotoxemia model, LPS). As for the experimental part:
Endotoxemia was induced in neonatal mouse pups (p11) by administering 5 mg/kg lipopolysaccharides (LPS) via intraperitoneal injection, and ileal samples were harvested 6 hours after LPS treatments. […] I3C and A18 were administered to the pregnant mother daily until the offspring were studied further for experimental NEC or endotoxemia as above. […] The mRNA quantification was performed on the Bio-Rad CFX96 Real-Time System (Bio-Rad) using iTaqTM universal SYBR® Green supermix (Bio-Rad) and the primers listed in Table 1. The relative mRNA expression levels were normalized against the expression of the housekeeping gene ribosomal protein lateral stalk subunit P0 (Rplp0). For microRNA isolation, freshly harvested, snap-frozen ileal tissue was subjected to total RNA isolation using the RNeasy plus universal mini kit (Qiagen) and miRNA was quantified using miScript PCR starter kit (Qiagen) following the manufacturer's protocols. The relative miRNA expression levels were normalized against the expression of housekeeping miRNA miR-191.

Series [3] relates to AHR. Kind of series: AHR activation in mouse ileal enteroids (Cyp1a1 qRT-PCR). In kind it is cell-based. More on the design: Cyp1a1 expression (AHR activation) in enteroids: dose or concentration left out as unconfirmed. The method, then:
(§1) Primary intestinal crypt cultures (enteroids) were generated from the ileum of neonatal (p7-p11) wild type and Ahr′ mice at as described, Neal et al., 2012, and maintained in Matrigel (Corning). The enteroids were digested and passed using TrypLE Express (Gibco) weekly, and used between passage 3 and 10 for all experiments. The enteroids were pre-treated with I3C ([…], 12 h), A18 (20 μM, 12 h) or human breast milk (100 μL/mL, Innovative Research, prepared by 5-minute-cenrifugation at 12,000 g and then filtration of supernatant through a 0.22-μm filter) and then treated with LPS (50 μg/mL) for 4 hours for further analysis.
(§2) Primary intestinal crypt cultures (enteroids) were generated from the ileum of neonatal (p7-p11) mice at as described, Neal et al., 2012, and maintained in Matrigel (Corning). The enteroids were digested and passed using TrypLE Express (Gibco) weekly, and used between passage 3 and 10 for all experiments. The enteroids were pre-treated with tested compound (40 uM, overnight) and then treated with LPS (50 μg/mL) for 6 hours for further analysis.
(§3) Total RNA was isolated using the RNeasy mini kit (Qiagen) and complementary DNA was synthesized from 0.5 μg RNA using QuantiTect Reverse Transcription kit (Qiagen) following the manufacturer's protocols. The mRNA quantification was performed on the Bio-Rad CFX96 Real-Time System (Bio-Rad) using iTaq™ universal SYBR® Green supermix (Bio-Rad) and the primers listed in Table 2. The relative mRNA expression levels were normalized against the expression of the housekeeping gene ribosomal protein lateral stalk subunit P0 (Rplp0).

The subject of series [4] is TLR4. Nature of the series: TLR4 signaling in mouse ileal enteroids (LPS-induced Tnf-a qRT-PCR). Type of series: cell-based. Particulars: I3C or breast milk pre-treatment, LPS 50 μg/mL. As for the experimental part:
as §1, §2, §3

In series [5] the test system is TLR4. Nature of the series: TLR4 signaling and expression in human ileal explant culture (LPS). Particulars: 200 μM I3C or 20 μM A18; LPS 50 μg/mL for 6 hours. Type of series: cell-based.
Excerpt: De-identified human ileal samples were collected via waiver of consent from the Office of Human Subjects Research Review Boards at Johns Hopkins University (IRB00094036), during surgery for NEC or at the time of stoma closure. For RNA isolation and qRT-PCR analysis, fresh samples were snapfrozen in liquid nitrogen immediately. For human explant culture, fresh ileum samples from NEC patients or patient undergoing stoma re-anastomosis were washed with sterile phosphate-buffered saline containing gentamycin (5 μg/mL), minced into 2- to 4-mm diameter pieces, and then cultured in Dulbecco's modified Eagle growth medium supplemented with 10% fetal bovine serum, 4 μg/mL human recombinant insulin and 100 μg/mL Primocin. Human ilea explant cultures were then pre-treated with 200 μM I3C or 20 μM A18 for 15 minutes, and then with 50 μg/mL LPS for 6 hours, then processed for total RNA isolation followed by qRT-PCR.
as §3, with “1.” for “2.”, “(Rplp0). For microRNA isolation, freshly harvested, snap-frozen ileal tissue was subjected to total RNA isolation using the RNeasy plus universal mini kit (Qiagen) and miRNA was quantified using miScript PCR starter kit (Qiagen) following the manufacturer's protocols. The relative miRNA expression levels were normalized against the expression of housekeeping miRNA miR-191.” for “(Rplp0).”

Entries after “also recorded” stand apart in the source; their conditions may differ.

The record followed here is patent US20230357261A1, “ARYL HYDROCARBON RECEPTOR LIGANDS AND THEIR ANALOGUES FOR THE PREVENTION AND TREATMENT OF INFLAMMATORY DISORDERS” (The Johns Hopkins University, priority 2020, published 2023).

Take `OCc1c[nH]c2ccccc12` [I3C, indole-3-carbinol]: the “Cyp1a1 expression in the neonatal intestinal epithelium (ileum)” value is given as “induced the expression Cyp1a1; also recorded: moderate increase” in series [1] (Ahr^Δlys mice, NEC model, I3C 25 mg/kg body weight/day for 4 days) and “induced the expression Cyp1a1; also recorded: multifold induction” in series [1] (wildtype mice, NEC model, I3C 25 mg/kg body weight/day for 4 days). Also, the “Cyp1a1 expression in the intestinal epithelium” value is reported as “did not induce Cyp1a1” in series [1] (Ahr^−/− newborn mice, fed I3C 25 mg/kg/day or A18 300 mg/kg/day); “induced the expression of Cyp1a1” in series [1] (Il22^−/− mice, NEC model, I3C 25 mg/kg body weight/day for 4 days); “induced Cyp1a1 expression” in series [1] (wild-type newborn (p11) mice, fed I3C 25 mg/kg/day or A18 300 mg/kg/day). For the same molecule, the “expression of the AHR response gene Cyp1a1 in the small intestine” value in series [1] (fetus at e17.5) and in series [1] (pregnant mother) was “induced the expression of the AHR response gene Cyp1a1” throughout. Moreover, the “Cyp1a1 expression in suckling pups” value in series [1] (p11, I3C administered to the lactating mother) is “induced Cyp1a1 expression”. Also, the “TLR4 signaling (LPS-induced Tnfa) in the intestine” value in series [2] (Ahr^−/− mice, I3C) was “did not reduce”. The “Tlr4 expression in the intestinal mucosa” value in series [2] (Ahr^−/− mice, I3C) is on record as “did not reduce”. For the same molecule, the “induction of the proinflammatory cytokine 116 in the neonatal (p11) mouse intestine in response to LPS” value in series [2] (maternal administration of I3C, vs pups from non I3C-treated mothers) is recorded as “significantly reduced the induction of the proinflammatory cytokine 116”. The “Tlr4 expression in the intestinal mucosa / newborn ileum” value in series [2] (wild-type mice, fed I3C or A18) is “reduced expression of Tlr4”. In addition, the “LPS-induced Tnfa expression (TLR4 signaling) in the intestine” value in series [2] (wild-type p11 mice fed I3C) is recorded as “reduced LPS-induced Tnfa expression”. The “Cyp1a1 expression (AHR activation) in enteroids” value in series [3] (Ahr^−/− enteroids, I3C or human breast milk) is “not”; in series [3] (wild-type enteroids, I3C (12 h) or human breast milk (100 μL/mL)), “induced the expression of Cyp1a1”. Further, the “LPS-induced Tnfa expression in enteroids” value in series [4] (Ahr^−/− enteroids) is on record as “not”; in series [4] (wild-type enteroids), “significantly reduced the LPS-mediated induction of Tnfa”. Besides, in series [5], the “LPS-induced Tnf-a expression in human intestinal explant cultures” value was “reduced LPS-induced Tnf-a expression”.
